Data as given in patent US20040242679A1, “Methods and compositions for potentiating cancer chemotherapeutic agents” (priority 2002, published 2004).

Columns and labels:
[1] = system: normal human liver (WRL 68); experiment: Cell death detection ELISA (histone-DNA complexes), normal liver cells; type: cell-based; conditions: 0.01-0.0001% furanone, three sequential treatments
Method: (§1) Four human tumor cell types, shown previously to be sensitive to combinations of mineral ascorbate plus metabolites are evaluated. These lines consist of: (i) a liver hepatoma (SK-Hep-1), (ii) a malignant melanoma (Malme-3M), (iii) a neurobastoma (SK-N-MC) and (iv) a colon carcinoma (T84). Non-malignant cell types consist of: normal human liver (WRL 68), normal skin fibroblasts (Malme-3) and normal retinal epithelial cells (ARPE-19). The tumor-derived lines, normal liver and skin fibroblasts are obtained from the American Type Culture Collection (ATCC). The ARPE-19 cell line is a gift from a colleague at California Institute for Medical Research. Cells are grown and maintained in culture, in a humidified incubator of 5% CO2/95% air. […]
(§2) Subconfluent monolayers of 1-2 old, adherent cultures (seeded at a density of 10,000 cells per well in a 96-well plate) are exposed to 0.1 volume of serial dilutions (10× concentrated solutions) of the furanone and the plate is returned to the incubator. […] The supernatant (cytoplasmic lysate) is saved and in aliquot (20 microliters) was assayed for the presence of histone-DNA complexes (nucleosomal fragments) by photometric detection (absorbance at 405-410 nm) using cell death detection Elisa assay (Roche Diagnostics).

[2] = system: Malme-3M, a malignant melanoma; experiment: Cell Proliferation ELISA, BudR (colorimetric), melanoma cells; type: cell-based, human; conditions: furanone at 0.1% as printed; FIG. 21
Text: Calcium ascorbate (CA), calcium threonate (CT), 4-hydroxy-5-methyl-3(2H)-furanone (FR) and Ester-C (EC) are obtained from Inter-Cal Corporation, Prescott, Ariz., USA. Tissue culture grade Ascorbic acid (AA) is from Sigma Chemical Company, St. Louis, Mo., USA. The composition of calcium ascorbate (calcium di-(L-ascorbate) dihydrate) is made by sequentially dissolving the salt in sterile water to obtain master-stock solutions of equal strength (1% w/v). Aqueous solution of calcium ascorbate plus calcium threonate plus 4-hydroxy-5-methyl-3(2H)-furanone (CA/CT/FR) is prepared at ratio of 85/7.5/7.5. For comparative analysis, stock solutions containing identical ascorbic acid (AA) equivalents are used. All master stocks are stored at room temperature during the course of these procedures. From these, 10× strength working stocks are prepared by serial dilution on the day of use and are applied to cells in microtiter plates as described below. […]
For DNA labeling, the following procedure is adapted and modified from the Cell Proliferation ELISA, BudR (Colorimetric) assay of Roche Diagnostics, Indianapolis, Ind., USA: Each treated well is exposed to one-tenth volume of 10× BrdU-containing medium and reincubated at 37 C. overnight (15-20 hrs.). One set of control wells is exposed to medium only (no BudR) to obtain an absorbance-control (substrate only) blank for the assay. […]

[3] = system: SK-Hep-1, a liver adenocarcinoma (hepatoma); experiment: Cell Proliferation ELISA, BudR (colorimetric), hepatoma cells; type: cell-based, human; conditions: for inhibition of hepatoma proliferation, single agent: ADR 0.02-0.33 micromoles, furanone 0.001-0.01% compared at same absolute concentration; for suppression of hepatoma proliferation, adjuvant combined with ADR: adjuvant 0.5 mM AA equivalents, one application of ADR, two of adjuvant, prominent at ADR 0.003-0.03 micromolar
Text: Calcium ascorbate (CA), calcium threonate (CT), 4-hydroxy-5-methyl-3(2H)-furanone (FR) and Ester-C (EC) are obtained from Inter-Cal Corporation, Prescott, Ariz., USA. Tissue culture grade Ascorbic acid (AA) is from Sigma Chemical Company, St. Louis, Mo., USA. The composition of calcium ascorbate (calcium di-(L-ascorbate) dihydrate) is made by sequentially dissolving the salt in sterile water to obtain master-stock solutions of equal strength (1% w/v). Aqueous solution of calcium ascorbate plus calcium threonate plus 4-hydroxy-5-methyl-3(2H)-furanone (CA/CT/FR) is prepared at ratio of 85/7.5/7.5. For comparative analysis, stock solutions containing identical ascorbic acid (AA) equivalents are used. All master stocks are stored at room temperature during the course of these procedures. From these, 10× strength working stocks are prepared by serial dilution on the day of use and are applied to cells in microtiter plates as described below.
Adriamycin (doxorubicin) is obtained from Sigma Chemical Company (St. Louis, Mo.). Stock solutions are made by dissolving adriamycin (ADR) in sterile water and DTIC in water or dilute acetic acid solution (0.01N). Stocks are stored frozen at −10 C. and thawed prior to use. Serial dilutions are made in sterile water to obtain 10× strength solutions and one tenth volume of this is applied to cells at the time of treatment.
Target human tumor-derived lines consist of SK-Hep-1, a liver adenocarcinoma ([…]) and Malme-3M, a malignant melanoma. All seed cultures are obtained from ATCC, Manassas, Va., USA and are propagated/maintained in serum-containing growth medium in a humidified incubator of 5% CO2/95% air. SK-Hep-1 cells are grown in Eagle's minimum essential medium (EMEM) in Earle's salts plus non-essential amino acids supplemented with 10% FBS plus antibiotics and Malme-3M cells are cultured in McCoy's medium supplemented with 15% fetal bovine serum (FBS) plus antibiotics.
For treatment, exponentially growing cells are seeded at a density of 1×10^4 cells per well of 96-well microtiter plate in 0.1-0.2 ml of growth medium. After overnight cell attachment at 37 C., duplicate wells are exposed to various treatments by direct application of one-tenth volume of 10× strength solution. For treatments involving chemotherapeutic agent, one-tenth volume of serial dilutions of adriamycin (0.0006-3.0 micromolar) are applied to wells followed by application of ascorbate-containing composition (adjuvant) or sterile water (control). The adjuvant treatment is repeated every other day or on the third day (as applicable) without change of growth medium. Untreated controls receive an equivalent amount of sterile water. After 2-3 treatments with adjuvant, cells are labeled with BudR as described below. (In some experiments, wells are refed an equal volume of growth medium prior to additional of BudR. This gives a higher amount of BrdU incorporation into DNA relative to no refluiding).
For DNA labeling, the following procedure is adapted and modified from the Cell Proliferation ELISA, BudR (Colorimetric) assay of Roche Diagnostics, Indianapolis, Ind., USA: Each treated well is exposed to one-tenth volume of 10× BrdU-containing medium and reincubated at 37 C. overnight (15-20 hrs.). One set of control wells is exposed to medium only (no BudR) to obtain an absorbance-control (substrate only) blank for the assay. After the labeling period, the culture medium is removed and the cells are fixed and DNA denatured in one step by adding FixDenat (30 min at RT). Then, FixDenat is removed, the anti-BrdU-peroxidase reagent is added and incubation continues for 90 min at RT. After removal of the latter, the plate is washed 3 times, followed by addition of substrate solution. The plate is kept at RT until color development became sufficient for photometric detection ([…]). At this time, reaction is stopped by addition to each well of 25 microliter 1M sulfuric acid followed by mixing for approximately 1 min on the shaker. […]

[4] = system: normal skin fibroblasts (Malme-3); experiment: Cell death detection ELISA, normal skin fibroblasts; type: cell-based, human; conditions: two furanone preparations
Method: as §1, §2

[5] = system: normal retinal epithelial cells (ARPE-19); experiment: Cell death detection ELISA, normal retinal epithelial cells; type: cell-based, human; conditions: up to max of 0.003% furanone
Method: as §1, §2

[6] = system: colon carcinoma (T84); experiment: Cell death detection ELISA, colon carcinoma cells; type: cell-based, human; conditions: up to a max. of 0.01% furanone
Method: as §1, §2

[7] = system: liver hepatoma (SK-Hep-1); experiment: Cell death detection ELISA, hepatoma cells; type: cell-based, human
Method: as §1, §2

[8] = system: malignant melanoma (Malme-3M); experiment: Cell death detection ELISA, melanoma cells; type: cell-based, human
Method: as §1, §2

[9] = system: neurobastoma (SK-N-MC); experiment: Cell death detection ELISA, neuroblastoma cells; type: cell-based, human; conditions: up to max of 0.001% furanone
Method: as §1, §2

With `CC1=C(O)C(=O)CO1` [furanone, 4-hydroxy-5-methyl-3(2H)-furanone] the “maximal change in cell-death rate” value [1] was “less than 0.3 logs”, the “enhancement of the inhibitory effect of ADR in melanoma cells” value [2] was “consistently enhances the inhibitory effect of ADR at all concentrations of the chemotherapeutic drug” and the “reduction in cellular DNA synthesis compared to untreated control” value ([3]; 0.01% furanone alone) was about 4.6 fold. The “enhancement of the inhibitory effect of ADR” value ([3]; ADR 0.007 micromolar, adjuvant 0.01%) was 7 fold, the “inhibition of hepatoma proliferation, single agent” value [3] was “more effective in inhibiting hepatoma proliferation than either the triple ascorbate/metabolite mix or Ester-C®” and the “minimal dose of furanone required to produce 2-fold enhancement of ADR inhibition” value ([3]; two independent experiments) was about 0.0016%. For the same compound, the increase in apoptosis [4] was under 0.3 log, the “change in death rates” value [5] was “does not elicit significant changes in death rates” and the “change in rate of cellular apoptosis over untreated control” value [6] was under 0.5 log. The “cell death in hepatoma cells” value ([7]; furanone 0.001-0.01% (0.08-0.88 mM), three sequential treatments) was “sharp rises in cell death”, the “minimal concentration required to produce 2-fold change in apoptosis rate” value ([7]; hepatoma cells) was under 0.001% and the “minimal concentration required to produce 2-fold change in apoptosis rate” value [8] was 0.003%. The “change in death rates” value [9] was “does not elicit significant changes in death rates”.
`O=C1O[C@H]([C@@H](O)CO)C(O)=C1O` [AA, Ascorbic acid, reference compound] was tested, and the “suppression of hepatoma proliferation, adjuvant combined with ADR” value (“suppression of hepatoma proliferation” below) [3] was “greater suppression of hepatoma proliferation than ADR alone”.
In the case of `COc1cccc2c1C(=O)c1c(O)c3c(c(O)c1C2=O)C[C@@](O)(C(=O)CO)C[C@@H]3O[C@H]1C[C@H](N)[C@H](O)[C@H](C)O1` [ADR, Adriamycin (doxorubicin), reference compound], the “inhibition of hepatoma proliferation, single agent” value [3] is reported as “dose-dependent inhibition of hepatoma proliferation”.
In the case of calcium di-(L-ascorbate) dihydrate, the “improvement of anti-proliferation activity of ADR” value ([3]; 0.033% adjuvant, low doses of ADR) is reported as “consistently improve the anti-proliferation activity of low doses of ADR”, the “suppression of hepatoma proliferation” value ([3]; dihydrate) is reported as “greater suppression of hepatoma proliferation than ADR alone” and the “suppression of hepatoma proliferation” value ([3]; listed as Calcium ascorbate, dihydrate) is reported as “more effective than ascorbic acid”.
